Source: patent publication US12194046B2 (priority 2021, dated 2025)

What was measured:
[1] = Pharmacokinetic study: plasma and brain concentrations after a single oral (gavage) dose in rats; format: in vivo, Sprague-Dawley rats; details: oral gavage 2 mg/kg
Source text: Serial blood samples were collected from three animals per group per timepoint prior to dosing and at 0.25, 0.5, 1, 2, 3 4, 6, 8, 10, 12, and 14-hours post dose. No more than three blood samples were collected from individual animals with the last sample being a terminal blood draw. Terminal brain samples were collected from three animals per group at 1, 4, 8, and 14-hours post dose. Blood samples were collected into tubes containing sodium heparin, and then processed for plasma and stored frozen until bioanalysis. Brain samples were collected following the terminal blood collection, rinsed with saline, and stored frozen until bioanalysis.
Non-compartmental pharmacokinetic parameter estimates were calculated from the mean plasma concentration-time data.
Animals were fasted overnight prior to dose administration. Water was provided ad libitum. Food was returned after the collection of the 4-hour samples.
Prior to dosing, the body weight of each animal was recorded. Doses (rounded to the nearest 0.001 mL) were calculated based on the pretreatment body weight (kg) and a dose volume of 10 mL/kg. […] Dosing syringes were weighed immediately prior to and immediately after dosing each animal, and the quantity of formulation administered to each animal was determined from the difference in syringe weights.
Immediately after the 1, 4, 8 and 14-hour blood collections, three animals/group were euthanized and the brain was dissected out of each rat. […] Brain weights were calculated for each sample. […]
The concentration-time data were analyzed to fit an extra-vascular (oral gavage) dosing plasma analysis model (200) using the software WinNonlin Phoenix version 6.3 (Pharsight).
Areas-under-the-plasma concentration-time curves (AUC) were estimated using the linear trapezoidal rule. […] Apparent T1/2 was calculated using the slope of the log-linear terminal phase of the concentration-time curve, defined by a minimum of three plasma concentration-time points. Half-lives are reported if the correlation for the regression line, as measured by r squared, is ≥0.9, when rounded.

[2] = clinical; details: both, human, in vivo, po
[3] = system: human hepatocytes
Method: Cryopreserved human hepatocytes were thawed and suspended into 50 ml of InVitro GRO HT-medium. The cells were centrifuged (50 g, 5 min) and resuspended into InVitro GRO KHB-medium (protein free). The cell density and viability were determined by trypan blue exclusion method.
Instrumentation: Waters Acquity UPLC+Waters TQ-S triple quadrupole MS; Column: Phenomenex Kinetex Biphenyl (2.1×100 mm, 1.8 μm) column with guard filter; Software: MassLynx 4.2.
The samples were analysed at 0, 30, 60, 90, and 120 minutes (with and without hepatocytes) by LC/MS/MS to monitor substrate depletion and formation of metabolites theophylline, theobromine and paraxanthine.

Row | SMILES | Cmax, corr (molecular weight corrected) ([1]; rat plasma, caffeine values multiplied by 0.956) [ng/mL] | half-life ([2]; 50 mg) [h] | AUC(0-t) ([2]; 52.3 mg) [µM·h] | Cmax ([2]; 52.3 mg) [µM] | MRT ([2]; 52.3 mg) [h] | half-life ([2]; 250 mg) [h] | AUC(0-t) ([2]; 261.7 mg) [µM·h] | Cmax ([2]; 261.7 mg) [µM] | MRT ([2]; 261.7 mg) [h] | formation of metabolite theobromine [3] | substrate depletion (disappearance) [3] | total brain exposure (AUClast,corr) higher than caffeine ([1]; rat brain, molecular weight corrected) | total systemic exposure (AUCinf) higher than caffeine ([1]; rat plasma, molecular weight corrected)
1 | Cn1c(=O)c2c(ncn2C)n(C)c1=O [caffeine, reference compound] | 2486 | 5.41 | 47.2 | 5.32 | 7.3 | 4.25 | 206 | 25.1 | 4.3 | not detected | No clear disappearance |  | 
2 | [2H]C([2H])([2H])n1c(=O)c2c(ncn2C([2H])([2H])[2H])n(C([2H])([2H])[2H])c1=O [d9-caffeine, 1,3,7-tri-trideuteromethylxanthine] |  | 32.2 | 192 | 6.62 | 19.7 | 25.6 | 972 | 36.5 | 18.9 | not detected | No clear disappearance | approximately 52% | approximately 77%
